Assay results published in patent US20240269085A1, “CO[…] COMPOUNDS AND PRODUCTION THEREOF” (Esolate Ltd, priority 2019, published 2024).

Tests used:
Format in all cases: physicochemical
Solubility in water = assay: Solubility in water
[1] = Relative bioavailability test: HPLC-UV of CBD concentration in water; conditions: after 32 hours elapsed time
Procedure: Relative bioavailability tests of the cannabinoid ultrafine nanoparticles obtained as described in Example 4 (test samples) as compared to cannabinoid isolates in water (control samples) were performed using a high performance liquid chromatography (HPLC) separator equipped with a UV detector to determine the concentration of CBD in each sample. Control samples were prepared by filtering 1 ml of each sample through a 0.45 μm filter into a 2 ml HPLC vial and 1 ml of methanol (MeOH) was added to each sample vial. HPLC mobile phase was comprised of 65% acetonitrile and 35% water. A flow rate of 1 ml per minute led to the elution of CBD after approximately 4.5 minutes.
A percentage area was measured after 32 hours elapsed time, which represents the amount of CBD in each sample relative to the background signal created by the MeOH in each sample.

[2] = Visual solubility in simulated stomach conditions (0.155 M HCl with NaCl, 37° C.)
Procedure: Bioavailability of the cannabinoid ultrafine nanoparticles obtained as described in Example 4 was assessed by visually evaluating the solubility of the fine nanoparticles in simulated stomach conditions. 0.5 g of NaCl was added to a 0.155 M solution of HCl in water to replicate stomach acidic conditions. 10 mg of the fine nanoparticles, 10 mg of the isolates in crystalline form, and 10 mg of the distillates were each placed in vials containing 10 ml of the acidic solution and incubated for 10 hours at 37° C. At the end of the 10-hour period, only minimal solubility of the preparations was observed. Additional 10 ml of the acidic solution were added, and the mixtures were incubated for 10 more hours at 37° C. At the end of the 20-hour period, the cannabinoid nanoparticles dissolved in the acidic solution.

Structure (SMILES): C=C(C)[C@@H]1CCC(C)=C[C@H]1c1c(O)cc(CCCCC)cc1O [CBD isolate, cannabidiol]
- solubility in water (visual) (Solubility in water): insoluble
- percentage area (amount of CBD relative to MeOH background) [1]: 0.7706%
- solubility in acidic solution ([2]; 10 mg in 20 ml, 20 hours at 37° C.): complete insolubility
- solubility in acid (visual) ([2]; acidic solvent resembling stomach conditions): insoluble
